Experimental findings from patent US9896668B2, “Substrate-mimetic AKT inhibitor” (University of South Florida, priority 2006, dated 2018) are described below.

Square brackets hold non-standard residues; d marks the D form. Peptide text beside a SMILES is read from it. * marks the point of attachment. 4Abz = Nc1ccc(C(=O)O)cc1; NHBn = c1ccc(CN*)cc1

What is called IC50 is the midpoint of a concentration-inhibition curve. Read a low IC50 as inhibition by little substance.

The target of the assay is Akt1 (Homo sapiens, UniProt P31749). Put plainly: in vitro inhibition of Akt, fluorescence polarization assay (IMAP Akt Assay Kit). The class given is biochemical. The procedure:
FIG. 9 is a table of investigations into the hydrophobic interactions between the GSK-3 residues central hydrophobic contacts and Akt. The values reported are an average of three independent binding curves using an IMAP™ Akt Assay Kit (Molecular Devices). Reactions were conducted in wells with 20.0 μL of 10 mM Tris-HCl (pH 7.2), 10 mM MgCl2, 0.1% BSA, 0.05% NaN3, 1 mM DTT, 100 nM 5FAM-[…]-COOH, 5 μM ATP, Akt1, and inhibitor. Reaction mixtures were incubated for 1 h at room temperature and then quenched with 60 μL of the IMAP-binding solution. The reactions were equilibrated for 1 h at room temperature then data points were collected and analyzed.
FIG. 14 is a table showing the optimization of C-terminal and central substituents for non-peptide inhibitors. ^a Reported values are an average of three independent-binding curves utilizing an IMAP® Akt Assay Kit (Molecular Devices). […] The reactions were equilibrated for 1 h at room temperature then data points were collected and analyzed. […]
Peptidomimetic inhibitors were generated directly from the minimal substrate sequence by systematic replacement of the non-critical amino acids and tested for in vitro inhibition of Akt using a fluorescence polarization assay system, shown in FIG. 3. […]

Chain of Akt1 (P31749 whole entry): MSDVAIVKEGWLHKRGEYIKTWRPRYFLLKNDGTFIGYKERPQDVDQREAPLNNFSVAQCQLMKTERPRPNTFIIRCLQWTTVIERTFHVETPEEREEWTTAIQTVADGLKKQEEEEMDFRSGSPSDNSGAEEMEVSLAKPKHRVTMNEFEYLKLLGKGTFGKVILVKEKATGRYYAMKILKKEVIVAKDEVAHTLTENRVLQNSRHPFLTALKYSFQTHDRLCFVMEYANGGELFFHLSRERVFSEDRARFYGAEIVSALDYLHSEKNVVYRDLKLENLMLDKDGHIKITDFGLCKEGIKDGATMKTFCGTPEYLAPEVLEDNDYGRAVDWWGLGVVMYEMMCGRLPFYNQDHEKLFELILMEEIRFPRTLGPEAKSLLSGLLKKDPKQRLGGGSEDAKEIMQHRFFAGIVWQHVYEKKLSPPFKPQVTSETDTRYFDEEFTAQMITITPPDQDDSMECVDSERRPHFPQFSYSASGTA

For `CC(=O)NCC(=O)N[C@@H](CCCNC(=N)N)C(=O)N1CCC[C@H]1C(=O)N[C@@H](CCCNC(=N)N)C(=O)Nc1ccc(C(=O)N[C@H](C(=O)N[C@@H](Cc2ccccc2)C(=O)NCc2ccccc2)C(C)C)cc1` [Inhibitor 10] (Ac-GRPR[4Abz]VF-NHBn), the IC50 (IMAP Akt Assay Kit, 5 μM ATP, 100 nM 5FAM-GRPRTSSFAEG-COOH, 1 h room temperature) is 28 µM. The “fold increase in potency/activity versus parent inhibitor” value (in vitro Akt inhibition) worked out at 10 fold.
